We go through 18 molecules from ChEMBL document CHEMBL3856191, “Structural modifications at the 6-position of thieno[2,3-d]pyrimidines and their effects on potency at FLT3 for treatment of acute myeloid leukemia” (Eur J Med Chem, 2016).

Series [1] is described as follows: Metabolic stability in rat liver microsomes assessed as compound remaining at 1 uM after 30 mins in presence of NADPH by HPLC-MS analysis. The format is ADME. To be noted: for remaining at 0.5 h, 1 µM: liver microsomes, read-out: Stability. Background: Microsomes from liver hold many membrane-bound enzymes, among them those of drug oxidation.
Series [2] is described as follows: Metabolic stability in human liver microsomes assessed as compound remaining at 1 uM after 30 mins in presence of NADPH by HPLC-MS analysis. The series is classed as ADME. The note with it: read-out: Stability.
The target of series [3] is Receptor-type tyrosine-protein kinase FLT3 (Homo sapiens, UniProt P36888, D835Y).
Description: Inhibition of human FLT3 D835Y mutant preincubated for 15 mins followed by poly(Glu:Tyr) substrate addition for 30 mins in presence of [gamma-32P]ATP by TR-FRET assay
The target of series [4] is T1, Receptor-type tyrosine-protein kinase FLT3 (Homo sapiens, UniProt P36888).
T1 sequence (P36888 whole entry): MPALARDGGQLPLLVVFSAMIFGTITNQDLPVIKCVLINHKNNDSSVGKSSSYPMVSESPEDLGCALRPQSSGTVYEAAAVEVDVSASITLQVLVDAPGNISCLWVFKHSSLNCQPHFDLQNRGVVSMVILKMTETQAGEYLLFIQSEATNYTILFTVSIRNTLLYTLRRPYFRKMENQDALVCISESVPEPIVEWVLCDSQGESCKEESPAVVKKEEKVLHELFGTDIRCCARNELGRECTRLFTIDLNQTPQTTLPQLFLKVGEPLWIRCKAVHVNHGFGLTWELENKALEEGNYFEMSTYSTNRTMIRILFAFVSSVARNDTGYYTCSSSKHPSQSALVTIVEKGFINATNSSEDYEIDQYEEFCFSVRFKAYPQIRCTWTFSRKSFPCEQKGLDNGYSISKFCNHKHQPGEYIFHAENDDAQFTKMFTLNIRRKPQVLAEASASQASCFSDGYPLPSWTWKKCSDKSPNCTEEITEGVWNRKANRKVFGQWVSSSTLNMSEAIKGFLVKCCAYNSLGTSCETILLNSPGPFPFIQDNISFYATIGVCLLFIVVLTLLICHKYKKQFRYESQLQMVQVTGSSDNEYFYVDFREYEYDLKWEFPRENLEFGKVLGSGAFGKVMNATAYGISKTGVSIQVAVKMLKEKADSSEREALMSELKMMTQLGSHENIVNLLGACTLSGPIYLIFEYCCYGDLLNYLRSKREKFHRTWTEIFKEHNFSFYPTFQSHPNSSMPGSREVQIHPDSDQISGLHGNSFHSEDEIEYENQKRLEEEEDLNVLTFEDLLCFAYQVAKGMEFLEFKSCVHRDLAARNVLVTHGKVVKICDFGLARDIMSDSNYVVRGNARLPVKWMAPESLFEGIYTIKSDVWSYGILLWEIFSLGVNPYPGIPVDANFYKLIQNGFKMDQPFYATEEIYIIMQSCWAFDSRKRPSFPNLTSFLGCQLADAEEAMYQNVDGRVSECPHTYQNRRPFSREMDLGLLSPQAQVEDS
The series can be described thus: biochemical. The format is cell-based, Sf21.
Description: Inhibition of recombinant human FLT3 expressed in insect Sf21 cells preincubated for 15 mins followed by poly(Glu:Tyr) substrate addition for 30 mins in presence of [gamma-32P]ATP by TR-FRET assay

Series [5] can be described thus: cells. The note with it: Homo sapiens, HL-60, 48 h.
Description: Growth inhibition of human HL60 cells expressing wild type FLT-3 after 48 hrs by XTT assay
Series [6] is described as follows: cells. To be noted: Homo sapiens, MV4-11, 48 h.
Description: Growth inhibition of human MV4-11 cells expressing FLT3-ITD after 48 hrs by XTT assay
Series [7] is described as follows: cells. The note with it: Homo sapiens, THP-1, 48 h.
Description: Growth inhibition of human THP1 cells expressing wild type FLT-3 after 48 hrs by XTT assay
Series [8] in a line: cells. To be noted: Homo sapiens, K562, 48 h.
Description: Growth inhibition of human K562 cells after 48 hrs by XTT assay
Series [9] addresses Angiopoietin-1 receptor (Homo sapiens, UniProt Q02763). As to the kind of experiment: Inhibition of human TIE2 assessed as remaining activity at 10 uM preincubated for 15 mins followed by substrate addition measured after 30 mins in presence of [gamma-32P]ATP by […] assay. (TR-FRET usually uses a lanthanide donor and a delayed reading to cut background.)
Series [10] has as its target Tyrosine-protein kinase ABL1 (Homo sapiens, UniProt P00519). The series can be described thus: Inhibition of recombinant human ABL1 expressed in insect cells assessed as remaining activity at 10 uM preincubated for 15 mins followed by poly(Glu:Tyr) substrate addition for 30 mins in presence of [gamma-32P]ATP by […] assay.

pIC50: −log10 of the molar value.

Chain of Tyrosine-protein kinase ABL1 (P00519 whole entry): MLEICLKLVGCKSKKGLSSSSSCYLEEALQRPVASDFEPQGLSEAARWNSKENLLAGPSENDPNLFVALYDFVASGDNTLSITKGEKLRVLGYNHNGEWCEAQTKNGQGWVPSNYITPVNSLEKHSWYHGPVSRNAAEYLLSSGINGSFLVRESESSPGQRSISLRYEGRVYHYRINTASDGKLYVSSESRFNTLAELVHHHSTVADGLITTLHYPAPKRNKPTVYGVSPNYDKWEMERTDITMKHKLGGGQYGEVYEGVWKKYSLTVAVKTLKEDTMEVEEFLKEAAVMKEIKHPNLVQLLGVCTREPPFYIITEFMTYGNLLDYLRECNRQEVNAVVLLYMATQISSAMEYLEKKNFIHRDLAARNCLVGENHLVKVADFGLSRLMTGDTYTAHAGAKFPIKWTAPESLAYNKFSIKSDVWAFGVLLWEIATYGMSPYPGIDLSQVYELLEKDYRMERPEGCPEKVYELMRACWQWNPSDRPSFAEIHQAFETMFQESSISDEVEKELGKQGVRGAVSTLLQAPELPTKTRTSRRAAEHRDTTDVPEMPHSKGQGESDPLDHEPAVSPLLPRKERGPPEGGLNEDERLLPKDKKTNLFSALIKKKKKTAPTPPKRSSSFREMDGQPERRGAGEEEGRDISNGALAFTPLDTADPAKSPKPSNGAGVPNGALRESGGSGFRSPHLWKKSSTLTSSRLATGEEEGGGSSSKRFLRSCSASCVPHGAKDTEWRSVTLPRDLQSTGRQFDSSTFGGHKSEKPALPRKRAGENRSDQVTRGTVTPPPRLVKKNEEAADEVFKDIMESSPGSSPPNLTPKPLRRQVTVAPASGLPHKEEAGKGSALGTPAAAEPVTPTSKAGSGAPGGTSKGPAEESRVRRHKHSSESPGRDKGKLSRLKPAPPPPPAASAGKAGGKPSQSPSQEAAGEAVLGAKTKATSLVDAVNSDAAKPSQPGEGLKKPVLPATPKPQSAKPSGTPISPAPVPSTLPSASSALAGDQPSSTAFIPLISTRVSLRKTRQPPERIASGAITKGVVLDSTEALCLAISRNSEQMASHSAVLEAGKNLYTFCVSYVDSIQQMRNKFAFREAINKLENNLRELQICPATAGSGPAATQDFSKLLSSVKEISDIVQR
Chain of Angiopoietin-1 receptor (Q02763 whole entry): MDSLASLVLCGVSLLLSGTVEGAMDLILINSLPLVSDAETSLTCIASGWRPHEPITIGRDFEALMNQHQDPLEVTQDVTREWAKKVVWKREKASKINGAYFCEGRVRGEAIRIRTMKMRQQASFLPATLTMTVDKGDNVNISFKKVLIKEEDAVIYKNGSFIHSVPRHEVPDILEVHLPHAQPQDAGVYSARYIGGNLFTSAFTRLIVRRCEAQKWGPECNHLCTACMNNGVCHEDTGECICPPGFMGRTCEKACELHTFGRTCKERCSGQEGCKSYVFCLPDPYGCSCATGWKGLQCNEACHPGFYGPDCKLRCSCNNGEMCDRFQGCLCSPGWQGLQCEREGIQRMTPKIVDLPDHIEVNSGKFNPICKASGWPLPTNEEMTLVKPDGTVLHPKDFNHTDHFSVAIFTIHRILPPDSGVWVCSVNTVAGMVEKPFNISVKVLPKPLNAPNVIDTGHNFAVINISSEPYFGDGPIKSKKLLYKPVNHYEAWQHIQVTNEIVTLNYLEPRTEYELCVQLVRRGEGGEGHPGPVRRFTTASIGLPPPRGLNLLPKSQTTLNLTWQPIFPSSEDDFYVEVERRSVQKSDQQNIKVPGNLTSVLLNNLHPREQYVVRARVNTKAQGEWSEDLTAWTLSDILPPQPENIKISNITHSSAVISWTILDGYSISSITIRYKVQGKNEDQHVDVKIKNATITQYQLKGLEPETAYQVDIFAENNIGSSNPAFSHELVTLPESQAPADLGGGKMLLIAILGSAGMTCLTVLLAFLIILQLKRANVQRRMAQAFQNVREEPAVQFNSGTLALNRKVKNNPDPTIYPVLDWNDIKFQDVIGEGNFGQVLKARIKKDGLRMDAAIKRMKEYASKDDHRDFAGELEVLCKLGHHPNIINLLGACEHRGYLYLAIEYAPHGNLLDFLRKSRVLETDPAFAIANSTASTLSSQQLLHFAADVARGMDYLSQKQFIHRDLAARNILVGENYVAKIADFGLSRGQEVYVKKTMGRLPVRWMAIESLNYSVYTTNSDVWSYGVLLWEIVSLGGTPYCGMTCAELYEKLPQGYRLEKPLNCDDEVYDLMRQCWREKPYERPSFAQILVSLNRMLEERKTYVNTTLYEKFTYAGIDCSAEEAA

For the molecule `CC1=CC(=O)N(Nc2nc(-c3cccs3)nc3sc(-c4ccc(O)cc4)c(C)c23)C1=O`, the remaining at 0.5 h, 1 µM in series [1] came out at 28.8%; in series [2] it was 71.8%.
For the molecule `CC1=CC(=O)N(Nc2nc(-c3cccs3)nc3sc(-c4ccc(OCc5ccc(F)cc5)cc4)c(C)c23)C1=O`, the values for the remaining at 0.5 h, 1 µM in series [1] and in series [2] were 35.6% and 66.9%, respectively.
The term pIC50 denotes the IC50 on a negative log10 scale, so that one unit is a factor of ten. Read a high pIC50 as a low IC50. As for `CC1=CC(=O)N(Nc2nc(-c3cccs3)nc3sc(-c4ccc(F)cc4)cc23)C1=O`, the pIC50 was 7.26 in series [3] and 6.91 in [4]. Also, the remaining at 0.5 h, 1 µM in series [1] is 26.9%; in [2] it was 61%.
By GI50 is commonly meant the concentration that inhibits growth by half. For `CC1=CC(=O)N(Nc2nc(-c3cccs3)nc3sc(-c4ccc(OCCNCCO)cc4)c(C)c23)C1=O.Cl`, the GI50 in series [5] came to 1340 nM; in series [6], 1130 nM; in series [7] it was 843 nM; in [8] it was 1410 nM. Moreover, the pIC50 in series [3] was 9.48; in series [4] it was 8.27. Besides, in series [1] (microsomes, 0.5 h, 1 µM), the Stability entry was “Nd(Unstable)”. For the same molecule, the remaining at 0.5 h, 1 µM in series [2] worked out at 91.3%.
For `CC1=CC(=O)N(Nc2nc(-c3cccs3)nc3sc(-c4ccc(OC5CCNCC5)cc4)c(C)c23)C1=O`, the GI50 in [5] stood at 377 nM; in series [6], 580 nM; in [7], 460 nM; in [8], 425 nM. Besides, the pIC50 in series [3] is 7.57; in series [4], 7.50. Further, the remaining at 0.5 h, 1 µM in [1] stood at 47.8%; in series [2], 52.4%.
In the case of `CC1=CC(=O)N(Nc2nc(-c3cccs3)nc3sc(-c4ccc(OC5CCNC5)cc4)c(C)c23)C1=O` (stereo not given), the concentration for 50% growth inhibition (GI50) came out at 214 nM in [5], 366 nM in series [6], 227 nM in series [7] and 315 nM in [8]. The figures for the negative-log IC50 (pIC50) in series [3] and in series [4] were 7.53 and 8.42, respectively. Further, the Activity in series [9] came to 25%; in [10], 26%. The remaining at 0.5 h, 1 µM came out at 34.2% in series [1] and 50.8% in [2].
For `CC1=CC(=O)N(Nc2nc(-c3cccs3)nc3sc(-c4ccc(OCCNCCC#N)cc4)c(C)c23)C1=O`, the negative logarithm of the IC50 (pIC50) in series [3] is 7.53; in [4], 6.72. In addition, the figures for the remaining at 0.5 h, 1 µM in series [1] and in [2] were 32.1% and 52%, respectively.
As for `CC1=CC(=O)N(Nc2nc(-c3cccs3)nc3sc(CO)c(C)c23)C1=O`, the remaining at 0.5 h, 1 µM in series [1] turned out to be 20.4%; in series [2] it was 24.6%.
As for `CC1=CC(=O)N(Nc2nc(-c3cccs3)nc3sc(-c4ccc(O)cc4)cc23)C1=O`, the GI50 was 336 nM in [5], 927 nM in series [6], 765 nM in series [7] and 506 nM in series [8]. The pIC50 was 7.10 in series [3] and 7.12 in series [4]. The remaining at 0.5 h, 1 µM in [1] was found to be 28.2%; in series [2], 74.1%.
With `CC1=CC(=O)N(Nc2nc(-c3cccs3)nc3sc(-c4ccc(OCC5CCCO5)cc4)c(C)c23)C1=O` (stereo not given), the remaining at 0.5 h, 1 µM in series [1] came to 41%; in series [2], 41.7%.
For `CC1=CC(=O)N(Nc2nc(-c3cccs3)nc3sc(C#N)c(C)c23)C1=O`, the negative-log IC50 (pIC50) in series [3] was 7.13; in [4], 6.93. In addition, the figures for the remaining at 0.5 h, 1 µM in [1] and in [2] were 26.1% and 52.7%, respectively.
With `CC1=CC(=O)N(Nc2nc(-c3cccs3)nc3sc(-c4ccc(OCCNCC(C)C)cc4)c(C)c23)C1=O`, the 50% growth inhibitory concentration (GI50) in [5] is 598 nM; in series [6], 278 nM; in series [7], 449 nM; in [8], 489 nM. For the same molecule, the pIC50 in series [3] is 7.45; in series [4], 8.60. Further, the remaining at 0.5 h, 1 µM in series [1] turned out to be 39.7%; in [2] it was 66.2%.
On to `COc1ccc(-c2cc3c(NN4C(=O)C=C(C)C4=O)nc(-c4cccs4)nc3s2)cc1`, for which the GI50 in series [5] worked out at 682 nM; in series [6] it was 1700 nM; in [7], 1270 nM; in [8], 1090 nM. For the same molecule, the values for the negative-log IC50 (pIC50) in series [3] and in [4] were 7.33 and 7.16, respectively.
Turning to `CC1=CC(=O)N(Nc2nc(-c3cccs3)nc3sc(-c4ccc(OCCN5CCCC5)cc4)c(C)c23)C1=O`, the GI50 in series [5] was determined as 1260 nM; in series [6], 585 nM; in [7] it was 636 nM; in series [8], 1040 nM. Besides, the pIC50 in series [3] was 7.78; in [4], 8.19. Moreover, the remaining at 0.5 h, 1 µM in [1] came to 41.5%; in series [2], 72.7%.
`CC1=CC(=O)N(Nc2nc(-c3cccs3)nc3sc(-c4ccc(F)cc4)c(C)c23)C1=O`: the figures for the remaining at 0.5 h, 1 µM in series [1] and in [2] were 54.5% and 39.5%, respectively.
For `CC1=CC(=O)N(Nc2nc(-c3cccs3)nc3sc(-c4ccc(OCCNCc5ccccc5)cc4)c(C)c23)C1=O`, the negative logarithm of the IC50 (pIC50) in [3] was 8.02; in series [4], 7.14. The remaining at 0.5 h, 1 µM in series [1] stood at 30.4%; in series [2] it was 86.2%.
As to `CC1=CC(=O)N(Nc2nc(-c3cccs3)nc3sc(C)cc23)C1=O`, the GI50 in series [5] worked out at 422 nM; in series [6], 1060 nM; in series [7], 1240 nM; in [8], 1000 nM. For the same molecule, the pIC50 in series [3] was 7.83; in series [4], 7.78. Further, the values for the remaining at 0.5 h, 1 µM in series [1] and in series [2] were 32.6% and 58.8%, respectively.
Consider `CC1=CC(=O)N(Nc2nc(-c3cccs3)nc3sc(C)c(C)c23)C1=O`, for which the GI50 in [5] worked out at 127 nM; in series [6], 191 nM; in series [7], 222 nM; in series [8], 105 nM. The pIC50 was 7.86 in series [3] and 7.94 in series [4]. Further, the Activity in series [9] came to 32%; in series [10] it was 29%. Besides, the remaining at 0.5 h, 1 µM stood at 22.7% in [1] and 32.4% in [2].
